Results taken from ChEMBL document CHEMBL2396574, “Design, synthesis and evaluation of retinoids with novel bulky hydrophobic partial structures” (Bioorg Med Chem, 2013).
Calls of active or inactive are those of the source. No cut-off for these calls is given here.

What was measured:
[1] = biological target: T1, Retinoic acid receptor RXR-gamma (Homo sapiens) (UniProt P48443); assay: Transactivation of full-length RXRgamma (unknown origin) expressed in African green monkey COS1 cells at 1000 nM by luciferase reporter gene assay; assay type: cell-based; details: COS-1
T1 sequence (whole entry): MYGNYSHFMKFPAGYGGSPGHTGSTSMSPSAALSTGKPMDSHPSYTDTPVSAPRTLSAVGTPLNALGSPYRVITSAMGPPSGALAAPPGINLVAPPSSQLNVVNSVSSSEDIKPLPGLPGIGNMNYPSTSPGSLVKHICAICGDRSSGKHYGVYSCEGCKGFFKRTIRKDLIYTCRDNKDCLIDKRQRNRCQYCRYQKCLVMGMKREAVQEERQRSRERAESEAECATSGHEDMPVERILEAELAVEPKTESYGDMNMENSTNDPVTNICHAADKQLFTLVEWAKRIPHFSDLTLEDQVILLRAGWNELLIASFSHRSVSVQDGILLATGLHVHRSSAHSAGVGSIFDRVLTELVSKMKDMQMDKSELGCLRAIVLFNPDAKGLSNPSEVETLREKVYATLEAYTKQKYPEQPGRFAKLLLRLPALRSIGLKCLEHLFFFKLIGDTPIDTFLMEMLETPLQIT

HL-60 [2] = assay: Induction of human HL60 cell differentiation into myeloid cells at 100 nM after 4 days by NBT reduction assay relative to control; assay type: functional
HL-60 [3] = assay: Induction of human HL60 cell differentiation into myeloid cells at 10^-6 M after 4 days by NBT reduction assay; assay type: functional, cell-based
HL-60 [4] = assay: Induction of human HL60 cell differentiation into myeloid cells at 10 nM after 4 days by NBT reduction assay relative to control; assay type: functional
[5] = biological target: T2, Retinoic acid receptor gamma (Homo sapiens) (UniProt P13631); assay: Transactivation of Gal4-fused RARgamma (unknown origin) expressed in African green monkey COS1 cells at 100 nM by luciferase reporter gene assay relative to DMSO-treated control; assay type: cell-based; details: COS-1
T2 sequence (whole entry): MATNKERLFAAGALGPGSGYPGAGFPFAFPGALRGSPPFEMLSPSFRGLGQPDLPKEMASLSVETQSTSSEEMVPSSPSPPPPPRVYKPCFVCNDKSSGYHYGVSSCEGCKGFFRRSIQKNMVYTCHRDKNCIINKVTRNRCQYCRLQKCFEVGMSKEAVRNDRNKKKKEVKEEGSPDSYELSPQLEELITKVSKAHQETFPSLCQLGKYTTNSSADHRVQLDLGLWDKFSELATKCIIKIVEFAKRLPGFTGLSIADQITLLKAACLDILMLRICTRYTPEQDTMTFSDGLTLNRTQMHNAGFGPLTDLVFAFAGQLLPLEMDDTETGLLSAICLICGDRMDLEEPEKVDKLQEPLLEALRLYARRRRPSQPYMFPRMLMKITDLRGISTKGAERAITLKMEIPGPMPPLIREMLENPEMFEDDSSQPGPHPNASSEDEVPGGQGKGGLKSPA

[6] = biological target: T3, Retinoic acid receptor beta (Homo sapiens) (UniProt P10826); assay: Transactivation of Gal4-fused RARbeta (unknown origin) expressed in African green monkey COS1 cells at 100 nM by luciferase reporter gene assay relative to DMSO-treated control; assay type: cell-based; details: COS-1
T3 sequence (whole entry): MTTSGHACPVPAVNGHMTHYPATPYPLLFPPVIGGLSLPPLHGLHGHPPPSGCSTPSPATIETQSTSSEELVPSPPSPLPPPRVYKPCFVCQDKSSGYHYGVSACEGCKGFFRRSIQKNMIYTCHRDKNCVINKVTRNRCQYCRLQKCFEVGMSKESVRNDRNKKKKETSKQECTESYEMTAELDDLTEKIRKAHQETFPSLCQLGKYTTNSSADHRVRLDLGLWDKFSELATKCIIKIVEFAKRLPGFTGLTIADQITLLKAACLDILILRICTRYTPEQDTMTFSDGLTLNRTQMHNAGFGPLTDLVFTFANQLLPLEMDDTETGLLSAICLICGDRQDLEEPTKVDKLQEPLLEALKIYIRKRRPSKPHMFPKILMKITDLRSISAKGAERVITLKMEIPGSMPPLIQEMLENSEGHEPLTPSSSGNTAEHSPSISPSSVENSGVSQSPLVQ

[7] = biological target: T4, Retinoic acid receptor RXR-beta (Homo sapiens) (UniProt P28702); assay: Transactivation of full-length RXRbeta (unknown origin) expressed in African green monkey COS1 cells at 1000 nM by luciferase reporter gene assay; assay type: cell-based; details: COS-1
T4 sequence (whole entry): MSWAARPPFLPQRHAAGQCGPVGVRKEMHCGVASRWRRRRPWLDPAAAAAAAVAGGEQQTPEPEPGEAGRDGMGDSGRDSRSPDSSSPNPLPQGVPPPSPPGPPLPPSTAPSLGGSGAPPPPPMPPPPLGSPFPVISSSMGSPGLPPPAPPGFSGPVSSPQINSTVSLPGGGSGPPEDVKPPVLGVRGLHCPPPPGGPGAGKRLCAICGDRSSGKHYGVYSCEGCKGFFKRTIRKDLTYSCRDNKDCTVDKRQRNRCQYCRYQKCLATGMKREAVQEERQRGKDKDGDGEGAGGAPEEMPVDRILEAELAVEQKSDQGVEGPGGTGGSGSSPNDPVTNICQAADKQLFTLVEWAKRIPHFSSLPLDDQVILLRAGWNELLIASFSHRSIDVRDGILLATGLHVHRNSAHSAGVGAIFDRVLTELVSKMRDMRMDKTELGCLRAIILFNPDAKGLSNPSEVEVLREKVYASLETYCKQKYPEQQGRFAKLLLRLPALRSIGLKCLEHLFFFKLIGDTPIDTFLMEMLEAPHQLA

| Activity [1] | fold change (FC) [5] | fold change (FC) [6] | Activity [7] | SMILES | Activity (HL-60 [2]) [%] | Activity (HL-60 [3]) | Activity (HL-60 [4]) [%] |
| --- | --- | --- | --- | --- | --- | --- | --- |
| inactive | 2 | 6 | inactive | O=C(Nc1ccc(C(=O)O)c(O)c1)c1cc2c3c(c1)CCCC3CCC2 | 42 |  | 24 |
| inactive | 1 | 7 | inactive | CC12CCCc3cc(C(=O)Nc4ccc(C(=O)O)c(O)c4)cc(c31)CCC2 | 32 |  | 17 |
| inactive | 1 | 3 | inactive | COc1cc(NC(=O)c2cc3c4c(c2)CCCC4(C)CCC3)ccc1C(=O)O | 17 |  | 5 |

The next lines start with the molecule.

| SMILES | Activity [1] | fold change (FC) [5] | fold change (FC) [6] | Activity [7] | Activity (HL-60 [2]) [%] | Activity (HL-60 [3]) | Activity (HL-60 [4]) [%] |
| --- | --- | --- | --- | --- | --- | --- | --- |
| O=C(Nc1ccc(C(=O)O)c(F)c1)c1cc2c3c(c1)CCCCC3CCCC2 | inactive | 5 | 19 | inactive | 44 | Active | 28 |
| CC12CCCc3cc(C(=O)Nc4ccc(C(=O)O)cn4)cc(c31)CCC2 | inactive | 25 | 40 | inactive | 61 |  | 41 |
| O=C(O)c1ccc(NC(=O)c2cc3c4c(c2)CCCC4CCC3)nc1 | inactive | 20 | 40 | inactive | 59 |  | 54 |
